In US10112926B2 (priority 2014, dated 2018):
Structures can show the parent of a compound that is named as a salt. Where two headings read alike, the source gives them in different places.

Key:
PI 3-kinase beta = PI 3-kinase beta (Homo sapiens (Human), UniProt P42338); conditions: read-out: Assay B PI3Kβ IC50
Vps34 = Vps34 (Homo sapiens (Human), UniProt Q8NEB9); conditions: read-out: Assay C VPS34 IC50
PI 4-kinase beta = PI 4-kinase beta (Homo sapiens (Human), UniProt Q9UBF8); conditions: read-out: Assay D PI4Kβ IC50
Sequence of PI 4-kinase beta (Q9UBF8 whole entry): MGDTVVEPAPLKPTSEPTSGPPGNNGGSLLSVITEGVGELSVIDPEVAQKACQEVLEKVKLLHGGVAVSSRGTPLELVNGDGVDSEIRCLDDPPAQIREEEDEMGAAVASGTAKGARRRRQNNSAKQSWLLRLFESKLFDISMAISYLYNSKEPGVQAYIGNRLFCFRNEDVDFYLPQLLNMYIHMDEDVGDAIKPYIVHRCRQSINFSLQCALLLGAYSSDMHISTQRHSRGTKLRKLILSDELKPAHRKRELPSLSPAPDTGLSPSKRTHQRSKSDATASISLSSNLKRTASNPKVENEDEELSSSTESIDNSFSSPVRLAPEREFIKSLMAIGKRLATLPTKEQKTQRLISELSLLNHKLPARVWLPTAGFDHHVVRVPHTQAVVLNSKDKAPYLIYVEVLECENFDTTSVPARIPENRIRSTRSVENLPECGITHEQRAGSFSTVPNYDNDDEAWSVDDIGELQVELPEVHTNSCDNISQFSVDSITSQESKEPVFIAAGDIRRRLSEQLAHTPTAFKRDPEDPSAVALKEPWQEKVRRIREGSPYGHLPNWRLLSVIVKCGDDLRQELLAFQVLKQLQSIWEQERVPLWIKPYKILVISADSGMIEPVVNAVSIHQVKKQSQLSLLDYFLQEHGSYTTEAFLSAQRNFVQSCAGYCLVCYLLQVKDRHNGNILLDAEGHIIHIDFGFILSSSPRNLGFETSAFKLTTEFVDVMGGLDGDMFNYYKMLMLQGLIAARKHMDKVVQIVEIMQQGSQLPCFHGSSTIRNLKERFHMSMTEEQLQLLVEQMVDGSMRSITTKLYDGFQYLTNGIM

[1] = molecular target: T1, PI 3-kinase beta (Rat-1 pBABEpuro Myr-HA-hp110 beta cells) (Homo sapiens (Human), UniProt P42338); experiment: cell-based
Method: (§1) Cellular Assays for PI 3-Kinase Alpha (H2), Beta (I2) and Delta (J2): HTRF (Homogeneous Time Resolved Fluorescence) Format
(§2) All cell lines were cultivated in complete growth medium (DMEM high glucose GlutaMAX™ Pyruvate, 10% (v/v) fetal bovine serum, 0.1 mM MEM NEAA, 25 mM HEPES, puromycin 10 μg/mL, 100 U/ml Penicillin, 100 μg/ml Streptomycin) to 90% confluency at 37° C./5% CO2/90% humidity in a humidified CO2 incubator and were split twice a week.
(§3) Semi-automated preparation of cell lysates: For low (inhibited) controls, 0.9 mM NVP-BGT226-AF-1 in 90% (v/v) DMSO was added to the compound master plate. For compound testing, the cells were seeded at a density of 4000 (Rat-1_PI3Kdelta), 8000 (Rat-1_PI3Kalpha), or 6500 (Rat-1_PI3Kbeta) cells in 30 μl complete growth medium into cell culture treated 384-well plates and were grown at 37° C./5% CO2/90% humidity for 24 h. 10 μl of the compound predilutions were transferred to the cells. After treatment with compound for 1 h, medium was removed and cells were lysed by the addition of 20 μl lysis buffer supplemented with blocking buffer. Detection of p-AKT(Ser473) was performed with the HTRF pAKT (Ser473) assay kit according to the manufacturer's instructions using 16 μl of cell lysate in a total detection volume of 20 μl.

PI 3-kinase alpha = PI 3-kinase alpha (Homo sapiens (Human), UniProt P42336); conditions: read-out: Assay A PI3Kα IC50
Sequence of PI 3-kinase alpha (P42336 whole entry, looked up): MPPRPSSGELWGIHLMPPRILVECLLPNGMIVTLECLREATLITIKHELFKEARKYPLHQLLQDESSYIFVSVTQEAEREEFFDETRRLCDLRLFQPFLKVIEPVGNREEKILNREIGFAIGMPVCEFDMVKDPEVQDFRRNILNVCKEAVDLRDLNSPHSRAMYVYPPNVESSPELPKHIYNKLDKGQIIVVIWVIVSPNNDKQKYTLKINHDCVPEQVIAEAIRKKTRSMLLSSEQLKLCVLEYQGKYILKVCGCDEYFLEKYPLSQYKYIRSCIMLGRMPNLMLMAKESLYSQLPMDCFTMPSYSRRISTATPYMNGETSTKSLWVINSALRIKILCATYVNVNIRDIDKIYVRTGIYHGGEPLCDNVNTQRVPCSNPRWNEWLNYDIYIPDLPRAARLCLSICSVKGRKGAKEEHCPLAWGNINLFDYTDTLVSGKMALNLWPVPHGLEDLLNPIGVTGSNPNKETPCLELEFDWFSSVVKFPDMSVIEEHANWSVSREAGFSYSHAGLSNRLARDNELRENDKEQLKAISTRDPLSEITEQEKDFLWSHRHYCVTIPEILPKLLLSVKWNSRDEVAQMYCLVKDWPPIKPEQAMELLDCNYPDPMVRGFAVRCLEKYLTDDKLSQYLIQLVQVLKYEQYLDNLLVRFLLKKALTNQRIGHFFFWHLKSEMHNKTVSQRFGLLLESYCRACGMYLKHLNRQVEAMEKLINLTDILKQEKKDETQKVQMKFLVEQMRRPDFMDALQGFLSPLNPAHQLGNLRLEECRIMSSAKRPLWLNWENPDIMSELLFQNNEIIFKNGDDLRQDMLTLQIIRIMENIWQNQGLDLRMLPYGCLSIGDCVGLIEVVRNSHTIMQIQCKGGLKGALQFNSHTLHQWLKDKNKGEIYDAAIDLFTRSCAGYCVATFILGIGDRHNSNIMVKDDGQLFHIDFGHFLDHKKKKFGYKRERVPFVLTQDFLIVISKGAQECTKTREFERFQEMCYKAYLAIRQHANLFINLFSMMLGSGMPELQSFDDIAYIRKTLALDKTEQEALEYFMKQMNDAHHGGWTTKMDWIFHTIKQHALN
Sequence of PI 3-kinase alpha (P27986 whole entry partner, looked up): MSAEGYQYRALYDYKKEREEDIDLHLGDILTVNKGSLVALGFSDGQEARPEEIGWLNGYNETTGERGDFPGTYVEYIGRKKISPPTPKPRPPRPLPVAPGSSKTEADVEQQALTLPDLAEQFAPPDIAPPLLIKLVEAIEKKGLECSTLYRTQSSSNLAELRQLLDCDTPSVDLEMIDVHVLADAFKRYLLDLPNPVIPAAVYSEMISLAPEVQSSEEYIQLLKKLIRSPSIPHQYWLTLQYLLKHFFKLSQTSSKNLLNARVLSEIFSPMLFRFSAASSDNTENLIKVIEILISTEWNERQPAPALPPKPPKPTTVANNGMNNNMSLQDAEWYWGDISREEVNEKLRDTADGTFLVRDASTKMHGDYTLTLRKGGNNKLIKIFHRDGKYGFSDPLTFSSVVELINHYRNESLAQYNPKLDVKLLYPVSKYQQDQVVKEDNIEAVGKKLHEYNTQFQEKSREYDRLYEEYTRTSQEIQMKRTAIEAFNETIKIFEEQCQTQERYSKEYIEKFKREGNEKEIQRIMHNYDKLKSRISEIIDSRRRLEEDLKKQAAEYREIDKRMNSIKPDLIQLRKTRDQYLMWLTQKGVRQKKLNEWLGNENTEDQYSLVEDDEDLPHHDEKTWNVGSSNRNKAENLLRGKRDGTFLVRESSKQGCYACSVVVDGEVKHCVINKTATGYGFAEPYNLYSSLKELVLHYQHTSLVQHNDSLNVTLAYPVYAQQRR

[2] = molecular target: T2, PI 3-kinase alpha (Rat-1 pBABEpuro Myr-HA-hp110 alpha cells) (Homo sapiens (Human), UniProt P42336); experiment: cell-based
T2 sequence (P42336 whole entry, looked up): as the sequence (P42336 whole entry, looked up) above
T2 sequence (Q63787 whole entry partner, looked up): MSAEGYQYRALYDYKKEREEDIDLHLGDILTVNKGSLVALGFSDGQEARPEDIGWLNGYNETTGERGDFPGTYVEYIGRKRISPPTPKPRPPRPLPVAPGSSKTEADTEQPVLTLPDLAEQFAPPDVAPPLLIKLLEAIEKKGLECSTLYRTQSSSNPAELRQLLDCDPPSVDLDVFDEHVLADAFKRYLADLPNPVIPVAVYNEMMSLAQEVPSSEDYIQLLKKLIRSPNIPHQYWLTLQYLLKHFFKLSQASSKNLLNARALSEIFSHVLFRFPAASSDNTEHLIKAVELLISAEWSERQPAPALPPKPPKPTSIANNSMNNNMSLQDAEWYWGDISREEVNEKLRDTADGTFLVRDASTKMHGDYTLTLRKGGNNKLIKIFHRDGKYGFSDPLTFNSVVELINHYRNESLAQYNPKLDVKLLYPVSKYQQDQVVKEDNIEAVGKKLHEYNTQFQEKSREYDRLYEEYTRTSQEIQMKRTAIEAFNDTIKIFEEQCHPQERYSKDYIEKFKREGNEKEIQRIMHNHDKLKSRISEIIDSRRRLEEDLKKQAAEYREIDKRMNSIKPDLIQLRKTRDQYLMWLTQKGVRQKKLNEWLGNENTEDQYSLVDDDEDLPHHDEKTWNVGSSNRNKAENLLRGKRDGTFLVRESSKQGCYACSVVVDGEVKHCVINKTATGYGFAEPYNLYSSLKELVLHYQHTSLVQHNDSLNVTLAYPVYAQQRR
Method: as §1, §2, §3

mTOR = mTOR (Homo sapiens (Human), UniProt P42345); conditions: read-out: Assay G mTOR IC50
[3] = molecular target: PI 3-kinase gamma (U937 cells, MIP1α-stimulated AKT phosphorylation) (Homo sapiens (Human), UniProt P48736); conditions: read-out: Assay K2 PI3Kγ IC50
[4] = molecular target: T2, PI 3-kinase alpha (Rat-1 pBABEpuro Myr-HA-hp110 alpha cells); experiment: cell-based; conditions: Assay H PI3Kα IC50
From the text: (§4) Cellular Assays for PI 3-Kinase Alpha (H1), Beta (I1) and Delta (J1): Surefire Format
(§5) The brand name SureFire denotes AlphaScreen assays that are adapted to quantify the phosphorylation of endogenous cellular proteins in cell lysates, by using matched antibody pairs, which consist of an anti-phospho-kinase and an anti-kinase antibody. The assay allows characterization of kinase signaling in cells as well as measurement of kinase inhibitor effects.
(§6) The p-Akt (S473) SureFire assay measures the phosphorylation of endogenous cellular Akt 1/2 at Ser473 in cell lysates. Using Rat-1 cells stably expressing myr-HA-tagged versions of the human PI3Kdelta, PI3Kalpha, or PI3Kbeta p110 catalytic subunit isoforms, the assay was developed as a two-plate protocol in a 384-well format.
(§7) For compound testing, the cells were seeded at a density of 4000 (Rat-1_PI3Kdelta), 7500 (Rat-1_PI3Kalpha), or 6200 (Rat-1_PI3Kbeta) cells in 20 μl complete growth medium into cell culture treated 384-well plates and were grown at 37° C./5% CO2/90% humidity for 24 h. Shortly before compound transfer, the complete medium was removed, 30 μl assay buffer (DMEM high glucose, 1×MEM NEAA, 10 mM HEPES, 2 mM L-glutamine, 0.1% (w/v) BSA) was added and 10 μl of the compound predilutions were transferred to the cells. […]

[5] = molecular target: T1, PI 3-kinase beta (Rat-1 pBABEpuro Myr-HA-hp110 beta cells); experiment: cell-based; conditions: Assay I PI3Kβ IC50
From the text: as §4, §5, §6, §7

Sequence of Vps34 (Q8NEB9 whole entry): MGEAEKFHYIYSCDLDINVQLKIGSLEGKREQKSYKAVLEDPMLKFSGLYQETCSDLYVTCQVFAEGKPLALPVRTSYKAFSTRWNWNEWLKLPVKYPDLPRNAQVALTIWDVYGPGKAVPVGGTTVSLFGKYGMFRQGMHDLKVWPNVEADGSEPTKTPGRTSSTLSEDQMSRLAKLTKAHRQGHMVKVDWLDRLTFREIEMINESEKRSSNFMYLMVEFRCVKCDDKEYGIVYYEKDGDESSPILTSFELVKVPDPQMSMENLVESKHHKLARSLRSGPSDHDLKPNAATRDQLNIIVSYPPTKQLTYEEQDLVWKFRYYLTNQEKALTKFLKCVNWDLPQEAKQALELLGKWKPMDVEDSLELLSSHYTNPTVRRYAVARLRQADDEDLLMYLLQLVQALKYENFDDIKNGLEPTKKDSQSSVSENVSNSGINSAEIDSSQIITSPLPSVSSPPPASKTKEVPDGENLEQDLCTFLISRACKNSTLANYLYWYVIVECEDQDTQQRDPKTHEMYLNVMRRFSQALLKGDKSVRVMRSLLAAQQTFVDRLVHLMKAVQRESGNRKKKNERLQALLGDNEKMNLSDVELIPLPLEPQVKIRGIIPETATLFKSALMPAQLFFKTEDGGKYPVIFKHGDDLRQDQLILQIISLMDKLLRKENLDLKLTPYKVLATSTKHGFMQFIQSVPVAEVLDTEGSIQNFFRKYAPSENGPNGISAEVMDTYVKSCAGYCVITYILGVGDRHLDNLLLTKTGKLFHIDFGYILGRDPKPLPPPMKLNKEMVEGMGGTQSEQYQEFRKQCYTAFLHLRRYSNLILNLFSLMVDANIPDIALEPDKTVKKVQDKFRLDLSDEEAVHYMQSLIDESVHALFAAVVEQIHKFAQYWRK

Structure (SMILES) | IC50 (PI 3-kinase beta) | IC50 (Vps34) | IC50 (PI 4-kinase beta) | IC50 [1] | IC50 (PI 3-kinase alpha) | IC50 [2] | IC50 (mTOR) | IC50 [3] | IC50 [4] | IC50 [5]
Cc1cc(-c2cc(-c3cc(S(=O)(=O)N4C[C@H](C)[C@@H](O)C4)ccc3C)cnc2N)on1 (relative stereo) [Example 101.3, trans-1-((3-(6-amino-5-(3-methylisoxazol-5-yl)pyridin-3-yl)-4-methylphenyl)sulfonyl)-4-methylpyrrolidin-3-ol] | 5.1 µM | > 10 µM | 3.6 µM | > 10 µM |  |  |  |  |  | 
Cc1cc(-c2cc(-c3cc(S(=O)(=O)N4CC(N(C)C)C4)ccc3C)cnc2N)on1 [Example 19.19, 5-(5-((3-(dimethylamino)azetidin-1-yl)sulfonyl)-2-methylphenyl)-3-(3-methylisoxazol-5-yl)pyridin-2-amine acetic acid salt] |  | > 10 µM | 8.5 µM |  | 3.1 µM | > 10 µM |  |  |  | 
Cc1cc(-c2cc(-c3cc(S(=O)(=O)NCC4(O)CCC4)ccc3C)cnc2N)on1 [Example 37.35, 3-(6-Amino-5-(3-methylisoxazol-5-yl)pyridin-3-yl)-N-((1-hydroxycyclobutyl)methyl)-4-methylbenzenesulfonamide] |  | > 10 µM |  |  |  |  | > 10 µM | 0.101 µM |  | 
Cc1noc(-c2cc(-c3cc(S(=O)(=O)NCC(C)(C)O)c(C)cc3C)cnc2N)n1 [Example 100] | 2.25 µM | > 10 µM | 4.25 µM |  | 0.26 µM |  |  |  | 4.14 µM | > 10 µM
